A word on the surface tension liquid-gas: it is the work needed to enlarge the surface of a liquid by unit area. The term mass density denotes mass per unit of volume.

Drawing on the NIST ThermoML archive (doi:10.1016/j.jct.2013.04.015), this text covers surface tension liquid-gas and mass density for 5 compounds.

± gives the expanded uncertainty stated by the source.

For this data set the following is noted: for surface tension liquid-gas: Wilhelmy plate method; for mass density: 101 kPa, Liquid, Vibrating tube method.

In the case of `CCO` [ethanol], the surface tension liquid-gas amounted to 22.11 ± 0.31 mN/m (298.15 K), 21.13 ± 0.3 mN/m (308.15 K) and 20.48 ± 0.3 mN/m (318.15 K). Moreover, the mass density (298.15 K) came to 784.7 ± 0.4 kg/m3, the mass density (308.15 K) is 776.2 ± 0.4 kg/m3 and the mass density (318.15 K) worked out at 767 ± 0.4 kg/m3.

Take `CCCCn1cc[n+](C)c1.C[C@H](O)C(=O)[O-]` [1-butyl-3-methylimidazolium L-lactate]: the surface tension liquid-gas (293.15 K) came to 43.14 ± 0.37 mN/m; the surface tension liquid-gas (298.15 K) is on record as 42.92 ± 0.37 mN/m; the surface tension liquid-gas (303.15 K) was found to be 42.79 ± 0.37 mN/m; the surface tension liquid-gas (308.15 K) turned out to be 42.37 ± 0.37 mN/m; the surface tension liquid-gas (313.15 K) worked out at 42.19 ± 0.37 mN/m; the surface tension liquid-gas (318.15 K) is on record as 42.01 ± 0.37 mN/m. Further, the surface tension liquid-gas reads like this: (323.15 K) 41.64 ± 0.37 mN/m; (333.15 K) 41.04 ± 0.36 mN/m; (343.15 K) 40.56 ± 0.36 mN/m. Besides, the mass density by setting is: (293.15 K) 1115.3 ± 0.5 kg/m3; (298.15 K) 1111.2 ± 0.5 kg/m3; (303.15 K) 1107.5 ± 0.5 kg/m3; (308.15 K) 1104.2 ± 0.5 kg/m3; (313.15 K) 1100.5 ± 0.5 kg/m3; (318.15 K) 1097.7 ± 0.5 kg/m3. Also, the mass density is recorded as 1094.1 ± 0.5 kg/m3 (323.15 K), 1086.1 ± 0.5 kg/m3 (333.15 K) and 1079.8 ± 0.5 kg/m3 (343.15 K).

With `O` [water], the surface tension liquid-gas (298.15 K) is 71.85 ± 0.78 mN/m, the surface tension liquid-gas (308.15 K) was 70.48 ± 0.77 mN/m and the surface tension liquid-gas (318.15 K) came out at 68.89 ± 0.75 mN/m. Moreover, the mass density (308.15 K) is recorded as 994.1 ± 0.9 kg/m3.

As to `CO` [methanol], the surface tension liquid-gas is listed as 22.22 ± 0.31 mN/m (298.15 K), 21.46 ± 0.3 mN/m (308.15 K) and 20.46 ± 0.3 mN/m (318.15 K). The mass density (298.15 K) was determined as 786.4 ± 0.4 kg/m3, the mass density (308.15 K) came to 776.9 ± 0.4 kg/m3 and the mass density (318.15 K) was 767.2 ± 0.4 kg/m3.

As to `CCCCO` [butan-1-ol], the surface tension liquid-gas runs as follows: (298.15 K) 23.89 ± 0.3 mN/m; (308.15 K) 23.46 ± 0.3 mN/m; (318.15 K) 22.62 ± 0.3 mN/m. Besides, the mass density runs as follows: (298.15 K) 805.7 ± 0.4 kg/m3; (308.15 K) 798 ± 0.4 kg/m3; (318.15 K) 790.1 ± 0.4 kg/m3.
